Patent US6407257B1, “Derivatives of erythromycin, their preparation process and their use as medicaments” (Aventis Pharma S.A., priority 1998, dated 2002)

Columns and labels:
[1] = system: Streptococcus pneumoniae; test: Method of dilutions in liquid medium (minimal inhibitory concentration); assay type: cell-based; conditions: incubation 24 hours at 37° C., growth inhibition by transillumination
Protocol: (§1) A—Method of Dilutions in Liquid Medium A series of tubes were prepared in which the same quantity of nutritive sterile medium is distributed. Increasing quantities of the product to be studied are distributed into each tube, then each tube is sown with a bacterial strain. After incubation for 24 hours in a heating chamber at 37° C., the growth inhibition is evaluated by transillumination, which allows the minimal inhibitory concentrations to be determined, expressed in micrograms/cm^3. The following results were obtained

[2] = system: Streptococcus pyogenes; test: as above; assay type: cell-based; conditions: incubation 24 hours at 37° C., growth inhibition by transillumination
Protocol: as §1

Molecule | minimal inhibitory concentrations [1] | minimal inhibitory concentrations [2]
CCC1OC(=O)C(C)C(=O)C(C)C(OC2OC(C)CC(N(C)C)C2O)C(C)(OC)CC(C)C(=O)C(C)C2N(CCCCn3cnc(-c4ccc(N)cc4)c3)C(=O)OC12C [EX. 1, 11,12-Dideoxy-3-de[(2,6-dideoxy-3-C-methyl-3-0-methyl-alpha-L-ribohexopyranosyl)oxy]-6-0-methyl-3-oxo-12,11-[oxycarbonyl-[[4-[4-(4-aminophenyl)-1H-imidazol-1-yl]butyl]imino]]-eryrthromycin] | 1.2 micrograms/cm^3 | 2.5 micrograms/cm^3
2-Fluoro-11,12-dideoxy-3-de[(2,6-dideoxy-3-C-methyl-3-0-methyl-alpha-L-ribohexopyranosyl)oxy]-6-0-methyl-3-oxo-12,11-[oxycarbonyl[[4-[4-(4-aminophenyl)-1H-imidazol-1-yl]butyl]imino]]-eryrthromycin [EX. 2] | 0.150 micrograms/cm^3 | 0.3 micrograms/cm^3
